From PMC4012441, “Nature’s Lab for Derivatization: New and Revised Structures of a Variety of Streptophenazines Produced by a Sponge-Derived Streptomyces Strain” (Marine Drugs, 2014)

target: T1, PDE 4B (Homo sapiens, UniProt Q07343); assay: PDE4B enzyme inhibition assay (according to Schulz et al.); format: biochemical
T1 construct: gene PDE4B
T1 sequence (Q07343 whole entry): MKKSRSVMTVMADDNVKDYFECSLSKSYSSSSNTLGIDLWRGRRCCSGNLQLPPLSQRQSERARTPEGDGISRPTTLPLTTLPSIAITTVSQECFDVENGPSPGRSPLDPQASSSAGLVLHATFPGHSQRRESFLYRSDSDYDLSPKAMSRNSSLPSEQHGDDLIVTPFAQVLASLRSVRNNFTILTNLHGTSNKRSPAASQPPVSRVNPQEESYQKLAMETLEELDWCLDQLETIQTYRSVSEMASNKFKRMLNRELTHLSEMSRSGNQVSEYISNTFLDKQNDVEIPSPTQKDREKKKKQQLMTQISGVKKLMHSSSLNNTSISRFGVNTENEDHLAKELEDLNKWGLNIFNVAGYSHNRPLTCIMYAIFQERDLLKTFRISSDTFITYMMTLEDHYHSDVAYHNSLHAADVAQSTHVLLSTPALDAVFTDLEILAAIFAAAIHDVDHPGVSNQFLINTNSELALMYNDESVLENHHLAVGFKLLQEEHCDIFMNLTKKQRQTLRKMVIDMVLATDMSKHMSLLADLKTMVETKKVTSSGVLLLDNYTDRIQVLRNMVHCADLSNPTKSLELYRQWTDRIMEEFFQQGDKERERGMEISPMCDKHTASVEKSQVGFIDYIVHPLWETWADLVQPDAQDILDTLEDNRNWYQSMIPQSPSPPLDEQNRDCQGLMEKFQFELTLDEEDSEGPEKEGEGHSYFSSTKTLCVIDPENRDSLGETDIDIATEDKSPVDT

Q: `CCC(C)CCC[C@@H](C(=O)OC)[C@H](O)c1cccc2nc3c(C(=O)O)cccc3nc12` (stereo partly drawn) [compound 3, Streptophenazine K] was tested. Which IC50 did it give?
A: 12.2 µM

Q: For `COC(=O)c1cccc2nc3c(C(O)C(CCCC(C)C(C)O)C(=O)OC)cccc3nc12` (stereo not drawn) [compound 2, Streptophenazine J], which IC50 is on record?
A: 12 µM

Q: For `CCC(C)CCC[C@@H](C(=O)OC)[C@H](O)c1cccc2nc3c(C(=O)OC)cccc3nc12` (stereo partly drawn) [compound 9, Streptophenazine G], which IC50 is on record?
A: 5.2 µM
